The source made the active and inactive calls. Bounds are passed on as bounds.

We go through 20 compounds from ChEMBL document CHEMBL1201862, “PubChem BioAssay data set” (2004).

For experiment [1], the target named is T1, Protein RecA (Mycobacterium tuberculosis, UniProt P9WHJ3).
T1 sequence (P9WHJ3 whole entry): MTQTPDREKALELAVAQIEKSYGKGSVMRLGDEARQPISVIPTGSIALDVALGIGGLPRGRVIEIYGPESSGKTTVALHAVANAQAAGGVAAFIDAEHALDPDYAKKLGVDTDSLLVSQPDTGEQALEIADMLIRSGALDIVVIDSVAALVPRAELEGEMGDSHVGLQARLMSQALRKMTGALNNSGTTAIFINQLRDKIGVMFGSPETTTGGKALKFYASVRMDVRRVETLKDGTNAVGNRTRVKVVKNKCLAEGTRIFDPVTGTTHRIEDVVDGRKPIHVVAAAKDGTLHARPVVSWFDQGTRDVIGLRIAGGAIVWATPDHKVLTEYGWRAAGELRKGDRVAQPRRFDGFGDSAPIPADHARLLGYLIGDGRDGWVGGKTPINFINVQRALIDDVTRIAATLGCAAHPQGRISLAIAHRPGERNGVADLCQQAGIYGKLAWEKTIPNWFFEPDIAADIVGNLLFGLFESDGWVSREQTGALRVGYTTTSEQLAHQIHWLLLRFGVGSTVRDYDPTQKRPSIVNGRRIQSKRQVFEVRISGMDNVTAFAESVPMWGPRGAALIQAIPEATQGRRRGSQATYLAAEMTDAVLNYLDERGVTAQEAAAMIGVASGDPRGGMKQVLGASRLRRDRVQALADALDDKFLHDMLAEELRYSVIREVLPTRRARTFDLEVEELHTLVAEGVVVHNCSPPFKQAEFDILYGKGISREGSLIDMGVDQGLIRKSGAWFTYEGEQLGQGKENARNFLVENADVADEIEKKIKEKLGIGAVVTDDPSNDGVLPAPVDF
Description: Fluorescence Cell-Free Homogeneous Dose Retest to Identify Inhibitors of RecA-Intein Splicing Activity. [Related pubchem assays (depositor defined):AID2097, AID2223, AID489010, AID492950]. Format: functional.

In experiment [2] the target is Glucose-6-phosphate 1-dehydrogenase (Homo sapiens, UniProt P11413). Description: inhibition of Homo sapiens G6PD, dose series – biochemical, fluorescence, selectivity assay for P. falciparum G6PD inhibitor project, dose response (AID 504792). The class given is functional.
For experiment [3], the target named is T2, Aminopeptidase N (Plasmodium falciparum FcB1/Columbia, UniProt O96935).
T2 sequence (O96935 whole entry): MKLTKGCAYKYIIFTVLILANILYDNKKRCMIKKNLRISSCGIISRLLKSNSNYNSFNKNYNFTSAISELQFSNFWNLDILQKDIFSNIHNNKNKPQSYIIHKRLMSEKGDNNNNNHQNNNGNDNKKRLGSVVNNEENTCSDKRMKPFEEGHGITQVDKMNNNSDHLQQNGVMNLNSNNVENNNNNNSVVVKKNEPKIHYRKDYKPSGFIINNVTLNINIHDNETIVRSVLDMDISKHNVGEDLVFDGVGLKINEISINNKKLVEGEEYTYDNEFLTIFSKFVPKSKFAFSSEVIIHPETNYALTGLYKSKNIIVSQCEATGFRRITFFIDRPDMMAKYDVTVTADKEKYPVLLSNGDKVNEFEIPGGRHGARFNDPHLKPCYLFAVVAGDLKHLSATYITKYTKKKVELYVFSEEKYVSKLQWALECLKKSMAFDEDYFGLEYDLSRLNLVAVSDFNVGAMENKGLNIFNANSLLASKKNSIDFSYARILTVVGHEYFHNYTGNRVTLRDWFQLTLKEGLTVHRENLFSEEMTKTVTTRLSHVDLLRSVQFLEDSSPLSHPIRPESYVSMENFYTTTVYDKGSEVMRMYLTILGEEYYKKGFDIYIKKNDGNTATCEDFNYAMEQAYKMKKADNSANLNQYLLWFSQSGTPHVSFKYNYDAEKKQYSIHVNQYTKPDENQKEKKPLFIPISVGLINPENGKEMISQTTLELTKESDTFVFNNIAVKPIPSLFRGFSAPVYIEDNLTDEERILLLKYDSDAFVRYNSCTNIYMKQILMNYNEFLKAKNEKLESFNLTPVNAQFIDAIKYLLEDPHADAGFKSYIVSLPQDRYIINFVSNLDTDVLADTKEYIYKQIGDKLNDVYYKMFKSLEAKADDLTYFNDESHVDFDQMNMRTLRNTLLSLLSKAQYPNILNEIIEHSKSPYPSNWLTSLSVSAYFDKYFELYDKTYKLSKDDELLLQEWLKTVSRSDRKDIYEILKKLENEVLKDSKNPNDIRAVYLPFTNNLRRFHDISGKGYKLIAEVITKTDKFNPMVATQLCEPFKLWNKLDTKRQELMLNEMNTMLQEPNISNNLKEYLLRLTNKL
Description: malaria alanyl aminopeptidase activity blockers – biochemical, fluorogenic H-Leu-NHMec substrate, 1536-well (AID 1445). Also noted: species or system Plasmodium falciparum 3D7, 3D7.

Experiment [4] concerns the target Large T antigen (Simian virus 40, UniProt P03070). The class given is functional, Betapolyomavirus macacae.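 Note: Confirmatory-stage PubChem screen for compounds that inhibit SV40 T antigen.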
The target in experiment [5] is T3, RNA-binding protein pos-1 (Caenorhabditis elegans, UniProt G5EF15).
T3 sequence (G5EF15 whole entry): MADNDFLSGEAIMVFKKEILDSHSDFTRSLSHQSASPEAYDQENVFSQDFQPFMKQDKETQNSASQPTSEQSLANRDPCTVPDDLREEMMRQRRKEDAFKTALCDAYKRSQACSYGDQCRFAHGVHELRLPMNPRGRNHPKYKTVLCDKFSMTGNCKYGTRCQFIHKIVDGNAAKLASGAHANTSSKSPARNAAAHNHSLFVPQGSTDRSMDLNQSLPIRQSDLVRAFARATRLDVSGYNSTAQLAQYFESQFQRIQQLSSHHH
The experiment is described as follows: disruptors of C. elegans POS-1 RNA interaction – biochemical, fluorescence polarization, dose response (AID 1964).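 Note: purified POS-1 fused to maltose binding protein made in E. coli; potency of compounds blocking POS-1 binding to fluorescent RNA.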

Experiment [6] has as its target T4, Voltage-gated N-type calcium channel alpha-1B subunit/Amyloid beta A4 precursor protein-binding family A member 1 (Homo sapiens, UniProt Q00975+Q02410). Format: protein assay.
The target in experiment [7] is T4, Voltage-gated N-type calcium channel alpha-1B subunit/Amyloid beta A4 precursor protein-binding family A member 1. Format: protein assay. The source holds these as a separate data set.
The target in experiment [8] is T5, Zinc finger protein mex-5 (Caenorhabditis elegans, UniProt Q9XUB2).
T5 sequence (Q9XUB2 whole entry): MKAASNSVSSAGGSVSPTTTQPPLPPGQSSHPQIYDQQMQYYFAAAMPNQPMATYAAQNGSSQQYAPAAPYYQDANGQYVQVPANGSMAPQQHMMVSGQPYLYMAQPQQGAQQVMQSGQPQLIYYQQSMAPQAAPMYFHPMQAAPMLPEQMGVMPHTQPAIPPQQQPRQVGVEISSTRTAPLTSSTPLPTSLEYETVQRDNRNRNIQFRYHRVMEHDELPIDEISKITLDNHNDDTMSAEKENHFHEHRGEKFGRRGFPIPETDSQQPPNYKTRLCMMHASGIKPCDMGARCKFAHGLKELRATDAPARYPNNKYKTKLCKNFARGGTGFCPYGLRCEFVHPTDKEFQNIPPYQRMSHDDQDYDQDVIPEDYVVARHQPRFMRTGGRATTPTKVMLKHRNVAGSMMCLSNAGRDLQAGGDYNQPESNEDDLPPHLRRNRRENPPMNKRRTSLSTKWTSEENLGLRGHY
The experiment is described as follows: potency of MEX-5 RNA-binding blockers – biochemical, C. elegans, fluorescence polarization, dose response (AID 1960). (In general: In fluorescence polarisation assays a small probe gives low polarisation when free and higher when bound to something large.)

Experiment [9] in a line: HEK-293T cell viability reduction – luminescence, B-cell screen hits, cytotoxicity control for BCR NF-kB inhibitor project, dose response (AID 489021).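 Note: HEK-293T cells carrying an NF-kB luciferase reporter; cells exposed to compound for about 14 hours before viability readout.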 Format: functional, cell-based.
Experiment [10] concerns H9c2. The experiment is described as follows: cells. Format: functional, cell-based. The settings on record: Rattus norvegicus, H9c2, Myocardium.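 Note: confirmatory concentration-response retest of ultra-high-throughput screening hits for modulation of myocardial damage; cell death induced by hydrogen peroxide oxidative stress; compound pretreatment for 60 min then peroxide exposure for 2 h; potency is for protecting the cells against peroxide damage rather than for killing them.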
Experiment [11] has as its target DNA dC->dU-editing enzyme APOBEC-3G (Homo sapiens, UniProt Q9HC16). Description: Dose Response confirmation of small molecule APOBEC3G DNA Deaminase Inhibitors via a fluorescence-based single-stranded DNA deaminase assay. [Related pubchem assays (depositor defined):AID493012, AID493028]. The class given is functional.
The subject of experiment [12] is HEK293. Description: cells. The conditions noted are these: Homo sapiens. Format: functional, cell-based.
Experiment [13] deals with Nucleotide-binding oligomerization domain-containing protein 2 (Homo sapiens, UniProt Q9HC29). The experiment is described as follows: inhibition of NOD2-driven NF-kB reporter – cell-based, luminescence, uHTS, HEK293 (AID 1566). The class given is functional.
Experiment [14] relates to HEK293. Description: cells. The conditions noted are these: Homo sapiens. Format: functional, cell-based. The source holds these as a separate data set.
Experiment [15] concerns HEK293. Description: cells. The conditions noted are these: Homo sapiens. The class given is functional, cell-based. The source holds these as a separate data set.
Experiment [16] relates to HEK293. The experiment is described as follows: NOD2 signaling inhibitors in MDP-stimulated cells, cell-based, uHTS, luminescence (AID 2001). Format: functional. The settings on record: Homo sapiens.
In experiment [17] the test system is HEK293. The experiment is described as follows: inhibition of NOD1-driven NF-kB reporter – cell-based, luminescence, uHTS, primary screen (AID 1578). Format: functional. The conditions noted are these: Homo sapiens.
Experiment [18] in a line: cells. Format: functional.
The nature of experiment [19]: reduction of Shn3 3'UTR-driven luciferase in osteoblasts – cell-based, Clone20 osteoblasts, firefly luciferase, cherry-picked, dose response (AID 624132).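 Note: firefly luciferase luminescence from reporter carrying the Shn3 3'UTR in osteoblasts.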 Format: functional.

Chain of DNA dC->dU-editing enzyme APOBEC-3G (Q9HC16 whole entry): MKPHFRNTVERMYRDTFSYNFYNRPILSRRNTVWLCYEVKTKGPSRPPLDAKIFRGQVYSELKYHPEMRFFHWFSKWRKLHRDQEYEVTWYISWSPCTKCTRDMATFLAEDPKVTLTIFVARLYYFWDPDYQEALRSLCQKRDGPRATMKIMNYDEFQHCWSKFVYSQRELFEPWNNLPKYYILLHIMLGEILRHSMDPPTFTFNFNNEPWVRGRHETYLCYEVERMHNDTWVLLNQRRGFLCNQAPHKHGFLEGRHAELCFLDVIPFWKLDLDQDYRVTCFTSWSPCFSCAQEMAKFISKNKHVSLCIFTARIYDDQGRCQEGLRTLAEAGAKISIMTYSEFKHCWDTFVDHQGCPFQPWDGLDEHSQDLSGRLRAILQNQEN
Chain of Glucose-6-phosphate 1-dehydrogenase (P11413 whole entry): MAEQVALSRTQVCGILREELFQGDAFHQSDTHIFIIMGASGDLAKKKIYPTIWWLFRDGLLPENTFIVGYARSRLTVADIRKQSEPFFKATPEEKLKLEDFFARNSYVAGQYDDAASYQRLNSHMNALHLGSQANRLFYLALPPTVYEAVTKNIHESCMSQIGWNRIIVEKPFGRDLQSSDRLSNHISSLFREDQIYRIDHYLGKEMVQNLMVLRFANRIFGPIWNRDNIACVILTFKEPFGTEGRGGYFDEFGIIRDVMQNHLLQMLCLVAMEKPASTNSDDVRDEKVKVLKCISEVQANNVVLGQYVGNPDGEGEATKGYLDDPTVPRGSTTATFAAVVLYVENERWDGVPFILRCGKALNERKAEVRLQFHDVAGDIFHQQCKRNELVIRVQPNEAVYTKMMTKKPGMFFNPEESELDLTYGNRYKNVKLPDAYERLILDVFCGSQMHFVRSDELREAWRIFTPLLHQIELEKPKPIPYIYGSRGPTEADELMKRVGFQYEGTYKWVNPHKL
Chain of Nucleotide-binding oligomerization domain-containing protein 2 (Q9HC29 whole entry, the tested form may be a part): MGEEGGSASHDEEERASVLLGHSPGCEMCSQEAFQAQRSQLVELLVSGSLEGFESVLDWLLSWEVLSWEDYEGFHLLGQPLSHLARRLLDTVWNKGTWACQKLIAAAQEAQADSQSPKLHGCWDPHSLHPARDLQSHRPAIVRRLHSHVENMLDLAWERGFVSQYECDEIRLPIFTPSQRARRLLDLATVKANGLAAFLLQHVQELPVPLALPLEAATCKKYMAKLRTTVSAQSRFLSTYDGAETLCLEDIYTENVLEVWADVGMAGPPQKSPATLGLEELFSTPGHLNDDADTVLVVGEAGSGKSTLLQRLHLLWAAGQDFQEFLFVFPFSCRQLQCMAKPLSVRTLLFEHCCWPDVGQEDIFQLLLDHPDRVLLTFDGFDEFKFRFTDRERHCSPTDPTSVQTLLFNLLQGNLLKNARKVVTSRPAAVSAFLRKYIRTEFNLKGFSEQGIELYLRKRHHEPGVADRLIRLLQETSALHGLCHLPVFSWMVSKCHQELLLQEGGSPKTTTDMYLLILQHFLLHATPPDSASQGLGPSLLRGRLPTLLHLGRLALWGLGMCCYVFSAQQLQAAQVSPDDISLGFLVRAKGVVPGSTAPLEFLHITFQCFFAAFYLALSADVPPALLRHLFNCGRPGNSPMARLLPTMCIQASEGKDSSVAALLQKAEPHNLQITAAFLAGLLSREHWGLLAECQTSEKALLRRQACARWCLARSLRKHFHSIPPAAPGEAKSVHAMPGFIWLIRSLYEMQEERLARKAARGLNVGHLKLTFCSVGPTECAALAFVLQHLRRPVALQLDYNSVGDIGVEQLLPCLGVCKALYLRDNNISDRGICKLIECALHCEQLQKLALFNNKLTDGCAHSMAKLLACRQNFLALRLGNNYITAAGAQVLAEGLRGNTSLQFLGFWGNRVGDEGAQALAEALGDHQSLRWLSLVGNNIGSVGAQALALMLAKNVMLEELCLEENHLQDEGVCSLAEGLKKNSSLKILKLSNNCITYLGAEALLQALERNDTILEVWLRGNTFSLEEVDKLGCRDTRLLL
T4 sequence (Q00975 whole entry): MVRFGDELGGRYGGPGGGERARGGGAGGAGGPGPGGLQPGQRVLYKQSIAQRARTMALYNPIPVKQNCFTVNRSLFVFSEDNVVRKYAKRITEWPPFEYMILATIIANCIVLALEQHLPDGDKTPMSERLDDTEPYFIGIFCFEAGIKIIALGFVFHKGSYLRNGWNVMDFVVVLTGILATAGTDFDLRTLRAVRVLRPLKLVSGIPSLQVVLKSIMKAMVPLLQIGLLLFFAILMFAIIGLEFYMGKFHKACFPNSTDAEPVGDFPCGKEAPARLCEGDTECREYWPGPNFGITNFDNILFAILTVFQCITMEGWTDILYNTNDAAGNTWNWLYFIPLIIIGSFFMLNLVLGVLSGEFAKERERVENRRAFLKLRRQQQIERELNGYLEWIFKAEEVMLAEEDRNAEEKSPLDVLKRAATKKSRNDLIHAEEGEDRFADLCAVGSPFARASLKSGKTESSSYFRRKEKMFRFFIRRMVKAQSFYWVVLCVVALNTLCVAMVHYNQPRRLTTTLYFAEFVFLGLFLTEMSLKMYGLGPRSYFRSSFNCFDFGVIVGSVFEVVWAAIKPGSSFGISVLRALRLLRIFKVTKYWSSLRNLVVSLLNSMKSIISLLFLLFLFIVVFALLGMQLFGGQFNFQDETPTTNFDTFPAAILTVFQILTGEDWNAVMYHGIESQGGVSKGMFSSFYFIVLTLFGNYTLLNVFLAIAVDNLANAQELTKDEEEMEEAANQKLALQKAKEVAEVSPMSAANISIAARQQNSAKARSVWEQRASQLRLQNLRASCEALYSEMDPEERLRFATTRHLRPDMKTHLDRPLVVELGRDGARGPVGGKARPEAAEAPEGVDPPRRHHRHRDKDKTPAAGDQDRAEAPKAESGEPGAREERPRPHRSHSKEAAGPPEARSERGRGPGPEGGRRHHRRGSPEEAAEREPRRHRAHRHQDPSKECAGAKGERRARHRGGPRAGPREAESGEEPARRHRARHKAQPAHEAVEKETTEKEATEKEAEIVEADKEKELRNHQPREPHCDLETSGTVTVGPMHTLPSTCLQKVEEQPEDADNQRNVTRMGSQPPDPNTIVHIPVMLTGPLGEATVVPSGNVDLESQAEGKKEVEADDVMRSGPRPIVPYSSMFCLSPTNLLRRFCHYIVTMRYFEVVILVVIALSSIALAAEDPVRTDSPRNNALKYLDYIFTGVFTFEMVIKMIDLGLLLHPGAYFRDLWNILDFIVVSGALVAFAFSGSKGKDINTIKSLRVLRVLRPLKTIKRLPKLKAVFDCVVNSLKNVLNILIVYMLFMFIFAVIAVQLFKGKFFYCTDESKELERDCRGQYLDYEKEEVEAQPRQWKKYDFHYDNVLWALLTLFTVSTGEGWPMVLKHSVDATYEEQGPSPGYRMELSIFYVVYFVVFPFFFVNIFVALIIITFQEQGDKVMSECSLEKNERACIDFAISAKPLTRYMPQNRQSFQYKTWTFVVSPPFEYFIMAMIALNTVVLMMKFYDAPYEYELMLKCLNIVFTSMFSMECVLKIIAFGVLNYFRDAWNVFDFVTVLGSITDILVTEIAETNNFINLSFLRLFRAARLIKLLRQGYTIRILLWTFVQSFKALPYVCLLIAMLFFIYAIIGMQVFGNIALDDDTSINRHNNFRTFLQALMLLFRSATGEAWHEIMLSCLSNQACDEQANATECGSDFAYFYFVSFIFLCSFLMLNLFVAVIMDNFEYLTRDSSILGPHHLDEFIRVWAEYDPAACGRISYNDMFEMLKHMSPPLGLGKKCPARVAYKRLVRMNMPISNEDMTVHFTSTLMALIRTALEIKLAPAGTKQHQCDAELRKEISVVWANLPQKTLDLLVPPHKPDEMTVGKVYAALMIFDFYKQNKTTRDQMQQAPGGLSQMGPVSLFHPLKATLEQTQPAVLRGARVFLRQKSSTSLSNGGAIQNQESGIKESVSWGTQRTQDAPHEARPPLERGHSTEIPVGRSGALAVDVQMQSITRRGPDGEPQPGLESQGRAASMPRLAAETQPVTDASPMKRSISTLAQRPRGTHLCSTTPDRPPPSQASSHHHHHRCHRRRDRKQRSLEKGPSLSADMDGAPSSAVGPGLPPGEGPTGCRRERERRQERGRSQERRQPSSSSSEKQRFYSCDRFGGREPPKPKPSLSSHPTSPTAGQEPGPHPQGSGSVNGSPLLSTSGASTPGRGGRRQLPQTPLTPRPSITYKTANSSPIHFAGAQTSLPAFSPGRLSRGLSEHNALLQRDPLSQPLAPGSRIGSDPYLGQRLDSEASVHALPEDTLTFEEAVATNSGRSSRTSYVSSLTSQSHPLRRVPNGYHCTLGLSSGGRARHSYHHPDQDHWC
T4 sequence (Q02410 whole entry): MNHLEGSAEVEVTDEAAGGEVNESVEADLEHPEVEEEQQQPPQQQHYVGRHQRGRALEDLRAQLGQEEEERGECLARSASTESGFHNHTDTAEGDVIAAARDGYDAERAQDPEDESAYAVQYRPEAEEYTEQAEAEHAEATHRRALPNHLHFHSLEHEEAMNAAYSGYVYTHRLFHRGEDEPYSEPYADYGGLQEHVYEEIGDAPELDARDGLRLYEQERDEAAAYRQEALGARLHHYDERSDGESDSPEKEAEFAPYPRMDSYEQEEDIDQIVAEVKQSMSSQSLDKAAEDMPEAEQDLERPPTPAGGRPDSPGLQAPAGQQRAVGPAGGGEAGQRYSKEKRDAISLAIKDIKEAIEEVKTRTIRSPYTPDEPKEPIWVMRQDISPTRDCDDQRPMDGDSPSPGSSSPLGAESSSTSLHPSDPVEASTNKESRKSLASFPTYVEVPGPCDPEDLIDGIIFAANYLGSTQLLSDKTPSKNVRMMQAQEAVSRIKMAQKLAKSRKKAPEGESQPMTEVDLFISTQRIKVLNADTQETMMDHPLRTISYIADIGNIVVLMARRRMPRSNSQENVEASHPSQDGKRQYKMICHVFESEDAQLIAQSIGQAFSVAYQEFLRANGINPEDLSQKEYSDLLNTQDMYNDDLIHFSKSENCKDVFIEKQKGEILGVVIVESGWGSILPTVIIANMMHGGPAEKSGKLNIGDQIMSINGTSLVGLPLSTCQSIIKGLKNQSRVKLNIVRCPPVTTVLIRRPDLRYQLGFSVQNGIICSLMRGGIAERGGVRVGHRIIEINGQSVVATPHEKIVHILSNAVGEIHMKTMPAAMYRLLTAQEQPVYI

Broadly, the EC50 is the concentration at which the effect is half-maximal. The IC50 is the concentration that gives 50% inhibition. For `COc1c(O)ccc2c1CN1CCc3cc4c(cc3C1C2)OCO4` (stereo unspecified), the EC50 in [1] is 14 µM (active). Moreover, in experiment [2], the IC50 is > 80 µM (inactive).
Take `NS(=O)(=O)c1ccc(CCNC(=O)CCCn2c(SCC(=O)N3CCCC3)nc3ccsc3c2=O)cc1`: the IC50 in experiment [3] is 97.7 µM (active).
Turning to `COC/C=C/C1=CC2=CC(=O)C(C)(OC(=O)CCC(=O)OC)C(=O)C2=CO1` (stereo unspecified), the IC50 in experiment [4] was > 100 µM (active); in experiment [6], > 56.8 µM (not active); in [7] it was 7.43 µM (active). Moreover, the EC50 in [5] was 22.1 µM (active); in experiment [8], 17 µM (active).
In the case of `COc1ccc(-c2nsc(SCC(=O)Nc3cc(C)on3)n2)cc1`, the IC50 in [9] was > 80 µM (inactive).
Consider `COC(=O)c1cc(NC(=O)Nc2cc(OC)ccc2OC)cc(C(=O)OC)c1`, for which the IC50 in [9] was > 80 µM (inactive); in [10], 16.3 µM (active).
For the compound `O=C(CNC(=O)c1cccs1)NCC(=O)OCC(=O)c1ccc([N+](=O)[O-])cc1`, in [2], the IC50 was > 80 µM (inactive).
In the case of `Cn1c(=O)cc(OCCCC(=O)NC2CCCC2)c2ccccc21`, the IC50 in experiment [9] was > 80 µM (inactive).
For `O=C1CC(Sc2nc[nH]n2)C(=O)N1c1ccccc1` (stereo unspecified), the IC50 in experiment [11] was 55.7 µM (active).
For `COc1cccc(OCCOc2ccc(/C=C3/SC(=S)NC3=O)cc2)c1`, the IC50 in experiment [12] is 16.5 µM (active); in [14], > 20 µM (inactive); in experiment [15], 6.04 µM (active); in experiment [16] it was 6.67 µM (inactive). For the same compound, the results for the EC50 in experiment [13] and in [17] were 9.33 µM (active) and 4.27 µM (active), respectively.
With `Cc1cc(-c2cc(C(=O)NCc3ccccc3)on2)nc(S(C)(=O)=O)n1`, the IC50 in [9] was > 80 µM (inactive).
In the case of `COC(=O)CCC(=O)Nc1sc(C)c(C)c1C(N)=O`, the IC50 in experiment [11] was 38.2 µM (active).
`NC(=O)c1ccc(Oc2ccc3ccc(=O)oc3c2)c([N+](=O)[O-])c1`: in experiment [3], the IC50 was 42.5 µM (active).
In the case of `COCCn1c(C)cc(C(=O)CSc2ncnc3sc4c(c23)CCC4)c1C`, the IC50 was 19.4 µM (active) in [12], > 20 µM (inactive) in experiment [14], 15 µM (active) in experiment [15] and 18.6 µM (inactive) in experiment [16]. Also, the EC50 in experiment [13] is 8.39 µM (active); in [17], 10.7 µM (active).
As for `O=C(CSc1nc2ccsc2c(=O)n1NC(=O)c1ccccc1)Nc1nccs1`, in experiment [3], the IC50 was 37.4 µM (active).
`O=C(CNC(=O)c1ccc(Br)cc1)NCC(=O)OCC(=O)c1ccc([N+](=O)[O-])cc1`: the IC50 in experiment [2] is > 80 µM (inactive).
On to `O=C(Oc1ccc(F)cc1)c1ccc2c(=O)n3c(nc2c1)CCC3`, for which, in [18], the IC50 is 3.88 µM (active).
Same read-out and setting: as for `Cc1cccc(NC(=O)COC(=O)CCc2c[nH]c3ccccc23)c1C`, the figure is 2.82 µM (active).
One may read the AC50 as the concentration giving half of the maximal activity seen. In the case of `CCOC(=O)c1c(C)[nH]c(C(=O)COC(=O)[C@H](C)N2C(=O)C3CCCCC3C2=O)c1C` (stereo partly specified), the AC50 in experiment [19] was 46.8 µM (active).
For `CCOCCCn1/c(=N/C(=O)c2cccnc2)c(C(=O)OCC)cc2c(=O)n3ccccc3nc21`, in [11], the IC50 was 41.3 µM (active).
On to `O=C(Oc1cccc(/C=N/Nc2nc(N3CCOCC3)nc(N3CCOCC3)n2)c1)c1ccco1`, for which the IC50 in experiment [9] was > 80 µM (inactive).
